Data reported in patent publication US20200131176A1, “SELECTIVE INHIBITORS OF CLINICALLY IMPORTANT MUTANTS OF THE EGFR TYROSINE KINASE” (CS Pharmatech Limited, priority 2017, published 2020).
Where “and” joins values, the source holds several entries; their conditions need not be identical. Equal entries are not always repeated. Where two headings read alike, the source gives them in different places.

Experiments:
[1] = molecular target: T1, L858R/T790M double mutant EGFR in H1975 cells (Homo sapiens, UniProt P00533, L858R/T790M); test: L858R/T790M double mutant H1975 autophosphorylation inhibition assay (ELISA); type: cell-based; conditions: cellular EGFR autophosphorylation, H1975, 2 h treatment; read-out: DM (H1975) IC50
T1 construct: endogenous in cells; host or cells: H1975 cells
T1 sequence (P00533 25-1210 T790M/L858R): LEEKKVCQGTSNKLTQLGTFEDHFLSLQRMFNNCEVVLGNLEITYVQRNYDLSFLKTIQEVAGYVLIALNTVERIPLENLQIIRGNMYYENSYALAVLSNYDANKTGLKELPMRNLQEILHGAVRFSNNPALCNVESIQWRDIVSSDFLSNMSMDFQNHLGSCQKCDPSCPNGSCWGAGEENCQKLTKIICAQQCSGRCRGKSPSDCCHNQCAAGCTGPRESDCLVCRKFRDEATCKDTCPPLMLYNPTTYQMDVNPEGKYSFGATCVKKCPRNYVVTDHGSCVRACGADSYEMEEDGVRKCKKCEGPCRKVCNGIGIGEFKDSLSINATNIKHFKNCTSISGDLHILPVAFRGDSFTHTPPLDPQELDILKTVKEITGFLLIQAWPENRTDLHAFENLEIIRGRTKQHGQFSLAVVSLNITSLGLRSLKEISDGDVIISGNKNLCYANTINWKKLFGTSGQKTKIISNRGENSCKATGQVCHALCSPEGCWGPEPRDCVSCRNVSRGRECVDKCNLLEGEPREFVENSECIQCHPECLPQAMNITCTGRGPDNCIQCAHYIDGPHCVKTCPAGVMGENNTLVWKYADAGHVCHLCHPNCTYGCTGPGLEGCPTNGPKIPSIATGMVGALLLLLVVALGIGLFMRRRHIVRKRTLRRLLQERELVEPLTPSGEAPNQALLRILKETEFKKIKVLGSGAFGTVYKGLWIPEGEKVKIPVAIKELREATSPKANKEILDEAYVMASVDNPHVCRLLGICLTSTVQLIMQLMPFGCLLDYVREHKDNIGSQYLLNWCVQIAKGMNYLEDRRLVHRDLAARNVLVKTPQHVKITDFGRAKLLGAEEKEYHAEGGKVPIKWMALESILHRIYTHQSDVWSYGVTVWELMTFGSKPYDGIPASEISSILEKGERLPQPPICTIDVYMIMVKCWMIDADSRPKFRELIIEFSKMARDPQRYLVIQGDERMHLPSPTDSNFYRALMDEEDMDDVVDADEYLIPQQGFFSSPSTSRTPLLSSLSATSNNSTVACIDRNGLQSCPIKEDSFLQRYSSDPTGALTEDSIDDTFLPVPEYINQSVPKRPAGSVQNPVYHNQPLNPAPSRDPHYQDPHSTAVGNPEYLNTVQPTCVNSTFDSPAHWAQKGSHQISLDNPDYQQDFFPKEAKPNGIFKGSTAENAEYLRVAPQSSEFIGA

A431 cells = test: A431 inhibition assay (cell proliferation, CellTiter-Glo, 72 h); type: cell-based, human; conditions: cellular proliferation, wild type EGFR, read-out: A431 IC50 (nM) WT
Protocol: (§1) Then incubate the flasks at 37° C. until the cells detach.
(§2) Test compounds were dissolved in DMSO at 30 mM.
(§3) The final concentration was 1,000 cells/well. Add medium only as low control.
(§4) After 72 hours incubation, remove the plates from incubator and equilibrate at room temperature for 15 minutes. Incubate the CellTiter Glo reagents (Promega, G9243) at 37° C. before the experiment. The buffer was equilibrated to room temperature and used to dissolve the substrate. To determine the cell viability, add 40 μL of CellTiter-Glo reagent into each well to be detected (at 1:1 to culture medium). Then the place the plates at room temperature for 30 min followed by read on EnSpire (PerkinElmer).
(§5) For estimation of IC50, the luminescence readout are transformed to % Inhibition by applying the following equation:

IGF-1R = molecular target: T2, IGF-1R (Homo sapiens, UniProt P08069); test: IGF-1R inhibition assay (Caliper mobility shift); type: biochemical; conditions: enzyme assay
T2 construct: purchased CARNA BIOSCIENCE 08-141
T2 sequence (P08069 959-1367 limits assumed): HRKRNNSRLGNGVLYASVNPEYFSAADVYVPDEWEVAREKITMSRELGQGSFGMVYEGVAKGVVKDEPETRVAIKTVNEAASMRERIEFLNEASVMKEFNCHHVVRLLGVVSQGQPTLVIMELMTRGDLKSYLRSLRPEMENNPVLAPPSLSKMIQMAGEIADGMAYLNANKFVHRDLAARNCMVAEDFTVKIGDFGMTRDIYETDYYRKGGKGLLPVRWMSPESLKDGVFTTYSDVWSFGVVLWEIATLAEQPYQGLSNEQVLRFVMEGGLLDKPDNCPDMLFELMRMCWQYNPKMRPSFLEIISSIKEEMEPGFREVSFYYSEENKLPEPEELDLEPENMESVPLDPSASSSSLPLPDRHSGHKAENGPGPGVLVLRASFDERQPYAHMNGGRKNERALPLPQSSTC
Protocol: Test compound was dissolved in DMSO at 30 mM. […] 20 nL of these compounds DMSO dilutes were dispensed into a new 384-well assay plate by Echo 550. […] 15 μL of kinase assay buffer containing IGF-1R protein and substrate was transferred to assay plate and incubate at RT for 30 minutes. Kinase assay buffer supplemented with substrate peptides was employed as low control to monitor the background. 40 μM ATP was prepared in kinase assay buffer containing and 5 μL of ATP solution was added to each well to start the reaction. The assay plate was incubated at 25° C. for 180 minutes and the reaction was stopped by adding 40 μL of 0.5 M EDTA.
Phosphorylated fluorescent-tagged peptides were differentiated from non-phosphorylated peptides by separating using Caliper EZ Reader II and the detection was directly converted to conversion ratio.

[2] = molecular target: Wild type EGFR in A431 cells (Homo sapiens, UniProt P00533); conditions: WT (A431) IC50 nM, cellular EGFR autophosphorylation, A431, 2 h treatment then EGF stimulation 10 min
Sequence of Wild type EGFR in A431 cells (P00533 25-1210): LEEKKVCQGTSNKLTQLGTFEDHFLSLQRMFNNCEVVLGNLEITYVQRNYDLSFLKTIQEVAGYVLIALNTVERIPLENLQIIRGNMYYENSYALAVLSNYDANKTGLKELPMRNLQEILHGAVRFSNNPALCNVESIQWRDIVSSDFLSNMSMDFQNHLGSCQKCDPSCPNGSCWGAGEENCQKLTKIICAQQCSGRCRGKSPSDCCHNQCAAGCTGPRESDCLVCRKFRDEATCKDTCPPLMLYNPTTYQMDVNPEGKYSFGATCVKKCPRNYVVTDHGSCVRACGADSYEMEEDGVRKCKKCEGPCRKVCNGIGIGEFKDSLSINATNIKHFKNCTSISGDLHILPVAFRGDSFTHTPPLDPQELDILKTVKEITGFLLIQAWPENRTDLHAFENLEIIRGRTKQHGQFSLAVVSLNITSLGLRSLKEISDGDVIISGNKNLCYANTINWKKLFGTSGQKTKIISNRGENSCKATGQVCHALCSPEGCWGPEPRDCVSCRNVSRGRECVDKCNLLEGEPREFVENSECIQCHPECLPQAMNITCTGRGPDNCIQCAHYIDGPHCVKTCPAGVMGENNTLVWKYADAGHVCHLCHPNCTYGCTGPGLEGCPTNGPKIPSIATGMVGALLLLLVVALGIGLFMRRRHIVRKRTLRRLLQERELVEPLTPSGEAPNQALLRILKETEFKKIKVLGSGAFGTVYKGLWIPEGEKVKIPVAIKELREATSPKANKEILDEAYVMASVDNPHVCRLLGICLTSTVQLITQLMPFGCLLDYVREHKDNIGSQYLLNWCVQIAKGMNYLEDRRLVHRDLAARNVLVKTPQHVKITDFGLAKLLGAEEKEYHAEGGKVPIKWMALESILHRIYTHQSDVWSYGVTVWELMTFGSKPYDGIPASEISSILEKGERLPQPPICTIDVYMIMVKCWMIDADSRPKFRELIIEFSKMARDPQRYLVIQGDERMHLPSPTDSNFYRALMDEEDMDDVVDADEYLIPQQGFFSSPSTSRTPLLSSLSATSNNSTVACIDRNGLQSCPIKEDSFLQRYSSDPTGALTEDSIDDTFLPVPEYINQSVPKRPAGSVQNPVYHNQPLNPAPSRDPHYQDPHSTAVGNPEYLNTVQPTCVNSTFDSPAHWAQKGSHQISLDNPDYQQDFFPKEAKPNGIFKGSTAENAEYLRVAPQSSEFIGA

INSR = molecular target: T3, INSR (Homo sapiens, UniProt P06213); test: INSR inhibition assay (Caliper mobility shift); type: biochemical; conditions: enzyme assay
T3 construct: purchased CARNA BIOSCIENCE 08-142
Protocol: Test compound was dissolved in DMSO at 30 mM. […] 20 nL of these compounds DMSO dilutes were dispensed into a new 384-well assay plate by Echo 550. […] 15 μL of kinase assay buffer containing INSR protein and substrate was transferred to assay plate and incubate at RT for 30 minutes. Kinase assay buffer supplemented with substrate peptides was employed as low control to monitor the background. 40 μM ATP was prepared in kinase assay buffer containing and 5 μL of ATP solution was added to each well to start the reaction. The assay plate was incubated at 25° C. for 180 minutes and the reaction was stopped by adding 40 μL of 0.5 M EDTA.
The result was analyzed in the same manner as IGF-IR.

H1975 cells = test: H1975 inhibition assay (cell proliferation, CellTiter-Glo, 72 h); type: cell-based, human; conditions: cellular proliferation, double mutant EGFR, read-out: NCI-H1975 IC50 (nM) DM
Protocol: H1975 Inhibition Assay (Cell Proliferation).
as §2, §3, §4, §5

PC-9 cells = test: PC-9 growth inhibition assay (cell proliferation, CellTiter-Glo, 72 h); type: cell-based, human; conditions: cellular proliferation, PC9 cells, single mutant EGFR, read-out: PC9 IC50 (nM) SM
Protocol: as §1, §2, §3, §4, §5

[3] = system: H1975 NSCLC cells xenograft (EGFR L858R/T790M double mutant); test: EGFR L858R/T790M double-mutant H1975 xenograft model; type: in vivo, nu/nu mice; conditions: day 10 after dosing; for Tumor Size: average ± SEM, n = 9
Protocol: Appropriately transformed cells, either from ATCC cell lines, known to carry the oncogene of interest, or from deliberate transfections, are suspended in appropriate media, and 5×10^6 or 1×10^7 cells are injected into the flank of nu/nu mice. Alternatively trochar placement of fragments of in vivo passaged tumors, usually about 1 mm^3 can be used to initiate the tumors. When tumors have reached an appropriate size for the experiment, usually in the 100-300 mg range, animals are randomized into matched groups of 6-10 mice, and tumor size and given vehicle or test article by perioral gavage once or twice daily. Tumor volumes are determined using calipers. The percentage increase in the volume of a xenograft tumor on day n versus day 0 (the day when dosing of the test compound began) is calculated as (tumor volume on day n−tumor volume on day 0/tumor volume on day 0)×100. The mean percentage of tumor growth inhibition in each drug-treated group relative to the vehicle-treated group is calculated as (1−mean percent increase of tumor volume in the drug-treated group/mean percent increase of the tumor volume in the vehicle-treated group)×100. Statistical significance is evaluated using a one-tailed t test.
Tumor size was measured on day 10 after dosing.

Mouse in vivo PK study [4] = conditions: mouse, plasma; male CD1 mice, 2 mg/kg IV
Protocol: To determine the drug concentration in plasma of the compounds of the present disclosure following intravenous and oral administration in male CD 1 Mice, pharmacokinetic profile and PK parameters were obtained.
Test animals: healthy male CD1 mice (body weight 20-30 g, 18 mice, free access to food and water), provided by Sibeifu laboratory. […]
Samples collection: the healthy animals were used, weighed the bodyweight and marked at tail and cage card prior to dosing. Blood samples (0.03 mL per time point) were collected from dorsal metatarsal vein at 0.083, 0.25, 0.5, 1, 2, 4, 8, 24 h post dose for IV group and at 0.25, 0.5, 1, 2, 4, 8, 24 h post dose for PO group, the terminal time point was collected from heart (˜0.3 mL). The blood samples were put into the tube with heparin-Na coated and then put on the cold box, centrifuged at 4° C. 4000 g, 5 minutes immediately after collecting all samples per time point to get plasma. The plasma samples were stored in a freezer at −75±15° C. prior to analysis.
The drug concentration was determined by LC/MS/MS method, and the PK parameters were observed as follows.

Mouse in vivo PK study [5] = conditions: male CD1 mice
[6] = molecular target: T4, Exon 19 deletion EGFR (activating single mutant) in PC-9 cells (Homo sapiens, UniProt P00533, DEL746-750); test: Exon 19 deletion EGFR PC-9 cellular autophosphorylation assay (p-EGFR ELISA); type: cell-based; conditions: PC9, 2 h treatment, read-out: SM (PC9) IC50
T4 construct: cellular phosphorylation of endogenous p-EGFR; host or cells: PC9 (PC-9) human lung cell line
T4 sequence (P00533 with tags, fused parts or gaps DEL746-750): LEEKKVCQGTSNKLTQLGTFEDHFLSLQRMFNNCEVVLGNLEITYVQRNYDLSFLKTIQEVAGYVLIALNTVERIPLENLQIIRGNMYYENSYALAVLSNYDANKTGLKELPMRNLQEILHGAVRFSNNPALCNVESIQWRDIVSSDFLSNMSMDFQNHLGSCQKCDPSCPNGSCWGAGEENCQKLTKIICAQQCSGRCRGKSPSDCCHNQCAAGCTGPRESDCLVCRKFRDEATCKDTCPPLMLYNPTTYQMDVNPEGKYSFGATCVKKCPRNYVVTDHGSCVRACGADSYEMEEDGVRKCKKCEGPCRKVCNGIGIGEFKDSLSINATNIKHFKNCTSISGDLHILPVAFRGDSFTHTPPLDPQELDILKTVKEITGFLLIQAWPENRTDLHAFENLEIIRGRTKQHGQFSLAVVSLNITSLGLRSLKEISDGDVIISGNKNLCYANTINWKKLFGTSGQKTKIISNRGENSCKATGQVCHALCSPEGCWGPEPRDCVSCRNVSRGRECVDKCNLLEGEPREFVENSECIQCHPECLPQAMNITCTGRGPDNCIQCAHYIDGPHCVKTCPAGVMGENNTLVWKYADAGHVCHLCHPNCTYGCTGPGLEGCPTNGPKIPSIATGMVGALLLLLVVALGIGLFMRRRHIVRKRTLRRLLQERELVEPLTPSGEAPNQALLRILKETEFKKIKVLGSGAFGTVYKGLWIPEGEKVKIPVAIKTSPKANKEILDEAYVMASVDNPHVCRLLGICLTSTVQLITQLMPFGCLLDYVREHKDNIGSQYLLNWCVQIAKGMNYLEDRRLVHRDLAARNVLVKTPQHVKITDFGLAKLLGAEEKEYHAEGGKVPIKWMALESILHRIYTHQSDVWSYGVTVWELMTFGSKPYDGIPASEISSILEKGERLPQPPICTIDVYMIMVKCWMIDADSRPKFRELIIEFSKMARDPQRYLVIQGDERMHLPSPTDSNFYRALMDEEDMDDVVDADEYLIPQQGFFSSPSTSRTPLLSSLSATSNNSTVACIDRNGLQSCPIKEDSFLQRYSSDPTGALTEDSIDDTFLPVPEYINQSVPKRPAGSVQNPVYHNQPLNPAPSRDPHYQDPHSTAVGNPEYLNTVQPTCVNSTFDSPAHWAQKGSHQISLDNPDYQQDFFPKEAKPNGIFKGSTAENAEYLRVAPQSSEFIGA
Protocol: The human lung cell line PC9 (Exon 19 deletion EGFR) were obtained from the American type Culture Collection. […] Cells were grown in a humidified incubator at 37° C. with 5% CO2, Assays to measure cellular phosphorylation of endogenous p-EGFR in cell Iysates were carried out according to the protocol described in the R&D Systems DuoSet IC Human Phospho-EGF R ELISA (R&D Systems catalogue number # DYCI095). 40 μL of cells were seeded (10000 cells/well) in growth medium in Coming black, clear-bottomed 384-well plates and incubated at 37° C. with 5% CO2 overnight. […] Plates were incubated for a further 2 h, then following aspiration of medium, 40 μL× lysis buffer is added to each well. Greiner black high bind 384 well plates were coated with capture antibody and then blocked with 3% BSA. Following removal of block, 15 μL of lysate are transferred to the Greiner black high bind 384 well plates and incubated for 2 hours. Following aspiration and washing of the plates with PBS, 20 μL of detection antibody were added and incubated for 2 hours. […] The data obtained with each compound are exported into a suitable software package (such as Origin) to perform curve fitting analysis.

[7] = molecular target: hERG channel (HEK 293 cell line stably expressing hERG channel) (Homo sapiens, UniProt Q12809); test: cell-based
Sequence of hERG channel (HEK 293 cell line stably expressing hERG channel) (Q12809 whole entry): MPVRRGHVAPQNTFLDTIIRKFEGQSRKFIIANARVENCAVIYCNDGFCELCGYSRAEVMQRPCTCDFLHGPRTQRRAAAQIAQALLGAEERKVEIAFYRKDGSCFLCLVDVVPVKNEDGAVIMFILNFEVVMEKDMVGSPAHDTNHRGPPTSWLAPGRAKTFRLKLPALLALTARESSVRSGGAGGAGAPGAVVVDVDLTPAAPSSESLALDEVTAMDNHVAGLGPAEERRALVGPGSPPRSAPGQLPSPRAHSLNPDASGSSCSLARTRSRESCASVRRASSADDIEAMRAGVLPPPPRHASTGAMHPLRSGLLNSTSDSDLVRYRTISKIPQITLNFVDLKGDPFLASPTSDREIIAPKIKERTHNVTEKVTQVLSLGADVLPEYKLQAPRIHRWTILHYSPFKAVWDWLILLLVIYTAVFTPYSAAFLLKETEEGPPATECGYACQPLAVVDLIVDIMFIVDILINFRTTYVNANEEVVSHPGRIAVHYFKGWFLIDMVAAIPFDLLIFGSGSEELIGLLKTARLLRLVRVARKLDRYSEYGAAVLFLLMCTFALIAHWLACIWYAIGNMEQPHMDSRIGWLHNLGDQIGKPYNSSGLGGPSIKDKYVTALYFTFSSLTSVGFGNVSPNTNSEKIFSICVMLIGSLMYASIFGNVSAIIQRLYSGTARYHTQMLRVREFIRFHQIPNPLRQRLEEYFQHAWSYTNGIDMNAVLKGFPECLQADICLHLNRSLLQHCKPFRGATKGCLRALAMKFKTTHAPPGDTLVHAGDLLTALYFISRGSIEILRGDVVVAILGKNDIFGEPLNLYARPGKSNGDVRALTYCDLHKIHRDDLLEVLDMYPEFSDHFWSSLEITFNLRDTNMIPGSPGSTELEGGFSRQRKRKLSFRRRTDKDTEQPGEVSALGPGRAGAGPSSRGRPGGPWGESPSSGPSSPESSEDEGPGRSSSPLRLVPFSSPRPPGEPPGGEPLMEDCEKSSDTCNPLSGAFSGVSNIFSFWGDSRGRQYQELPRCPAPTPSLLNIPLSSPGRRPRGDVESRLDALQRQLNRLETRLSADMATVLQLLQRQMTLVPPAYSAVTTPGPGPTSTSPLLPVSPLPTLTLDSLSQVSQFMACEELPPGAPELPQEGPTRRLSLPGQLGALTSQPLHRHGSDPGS

## C=CC(=O)Nc1cc(Nc2nccc(-c3cc(C#N)c4c(c3)c(C)cn4C)n2)c(OC)cc1N(C)CCN(C)C [Example 2, N-(5-((4-(7-Cyano-1,3-dimethyl-1H-indol-5-yl)pyrimidin-2-yl)amino)-2-((2-(dimethylamino)ethyl)(methyl)amino)-4-methoxyphenyl)acrylamide]
[1]
  IC50: 4.29 nM and 2.54 nM
A431 cells; Homo sapiens, A-431, 72 h
  IC50: 2120 nM
A431 cells
  IC50: 3680 nM
IGF-1R
  IC50: 1120 nM
[2]
  IC50: 77.1 nM and 166 nM
INSR
  IC50: 1820 nM
H1975 cells; Homo sapiens, NCI-H1975, 72 h
  IC50: 4.77 nM
H1975 cells; NCI-H1975 cells
  IC50: 3.45 nM
PC-9 cells; Homo sapiens, PC-9, 72 h
  IC50: 4.18 nM
PC-9 cells
  IC50: 3.22 nM
[3]; 5 mg/kg
  TGI (tumor growth inhibition): 96.93%
  TRTV/CRTV (relative tumor volume): 19.70%
  Tumor Size: 230 ± 93 mm^3
[3]; 15 mg/kg
  TGI (tumor growth inhibition): 115.76%
  TRTV/CRTV (relative tumor volume): 3.93%
  Tumor Size: 46 ± 32 mm^3
[3]; 30 mg/kg
  TGI (tumor growth inhibition): 115.52%
  TRTV/CRTV (relative tumor volume): 3.92%
  Tumor Size: 45 ± 19 mm^3
Mouse in vivo PK study [4]
  AUC: 937 ng·h/mL
Mouse in vivo PK study [5]; 2 mg/kg IV, 10 mg/kg PO
  F: 20.8%
Mouse in vivo PK study [5]; mouse, plasma, 2 mg/kg IV
  clearance: 35.5 mL/min/kg
Mouse in vivo PK study [5]; mouse, plasma, 2 mg/kg IV, read-out: T1/2 (IV) (converted)
  half-life: 1.5 h
Mouse in vivo PK study [5]; mouse, plasma, 10 mg/kg PO
  AUC: 976 ng·h/mL
  Cmax: 119 ng/mL
Mouse in vivo PK study [5]; mouse, plasma, 10 mg/kg PO, read-out: T1/2 (PO) (converted)
  half-life: 2.57 h
[6]
  IC50: 7.06 nM and 5.4 nM
[7]
  IC50: 6570 nM
